Test results as given in article PMC4786809, “Determination of cyanidin 3-glucoside in rat brain, liver and kidneys by UPLC/MS-MS and its application to a short-term pharmacokinetic study” (Scientific Reports, 2016).
Several values for one entry are separate records, joined by “and”; a condition that tells them apart may be missing. Equal values may be shown once. Read-outs that look alike come from different tables or passages of the source.

Test: Plasma concentrations and pharmacokinetics after intravenous bolus of C3G (NCA and two-compartment model)
Format: in vivo, Wistar rats
Conditions: for C0: read-out: C0 (back-extrapolated concentration)
Description: Twenty-two male Wistar rats (Rattus Norvegicus, Harlan Italy S.r.l.), of same age (15 weeks), 293–390 g of body weight, were used. The rats were randomly divided into 5 groups, according to the time that elapsed after intravenous administration of the test compound, and one control group. Each time point was represented by four biological replicates. All animals were allowed to acclimate to the animal facility of the University of Trieste for at least 2 week before studies were initiated. The experimental design was vetted and approved by the bioethical committee of the University of Trieste (internal code 140PAS14), according to the provisions of the European Community Council Directive 2010/63/EU[39]. The methods were carried out in accordance with the approved guidelines. The animals (n = 22) were maintained in cages in a room at 23 ± 2 °C, 50–60% humidity with a 12-hour light-dark cycle. The night before the experiment, food was withdrawn from the cages but water was given ad libitum. On the day of the experiment, the rats were anesthetized with intra-peritoneal administration of tiletamine/zolazepam (1:1, 25 mg/kg body weight) and xylazine (10 mg/kg body weight). During anaesthesia (10 min in all cases), the heart and ventilation rate were monitored. The rats were placed on their backs, with the ventral side up and with the legs spread separately on a thermo-isolated support. The penis was extruded by sliding the prepuce downwards. The dorsal penis vein was then seen along both sides of the penis and exactly 10 min after anaesthesia 0.2 mL PBS without (control group) or with (treated group) 668 nmol cyanidin 3-glucoside (C3G) in PBS was injected using a 24-G hypodermic needle. Then the injection site was pressed with a swab for a few seconds, and the glans was encouraged to retract to prevent further bleeding. One min before sacrificing the rats, sodium heparin (0.1 ml, 500 IU) was injected again into the dorsal penis vein, exposed in the same way. […] Blood draining and excision of the organs were carried out according to the literature. In detail, blood was collected from the neck of rats hold upside down, immediately after their decapitation, which happened at the time points sharp. Exsanguination took 5 seconds; laparotomy and excision of the liver and the kidneys took 5 more seconds. The post-decapitation procedures were standardised. Urine was collected through the urinary bladder with a syringe before decapitation. Kidneys, liver and brain were washed with mQ water, immediately frozen in liquid nitrogen and stored at −80 °C.
Immediately after sampling, 5 mL of blood were transferred into ice-cold (−20 °C), deoxygenated aqueous 95% methanol in a ratio 1:9 (v/v). The urine was weighted and transferred into ice-cold, deoxygenated aqueous 95% methanol at a ratio of 1:9 (w/v). Frozen kidneys, liver and brain were grounded under cryogenic conditions (−196 °C) to 5 μm particles in a CryoMill (Retsch, Germany), using a single 25 mm i. d. steel ball (30 seconds, 25/sec frequency). The pulverized tissue was rapidly transferred (without thawing) into ice-cold, deoxygenated aqueous 95% methanol at a ratio of 1:9 (w/v). Cinnamic acid-d5, as internal standard, was dissolved in the aqueous methanol at concentration of 0.1 mg/L for the monitoring of the extraction protocol in biofluids and tissues.
All samples were extracted with an orbital shaker for 10 min at room temperature. The methanol extracts were then centrifuged for 5 min at 3600 rpm at 4 °C, decanted under a stream of nitrogen in 50 mL dark glass vessels and stored at −80 °C. Clean-up of extracted samples in methanol was performed by solid phase extraction (SPE), as previously described. Briefly, 5 mL of extracted samples were evaporated on a rotary evaporator and reconstituted in 10 mL of acidified water. Anthocyanins were extracted by solid-phase adsorption onto a hydrophobic matrix (Sep-Pak C18, 0.35 g, Waters, Milford, MA). […]

[1] = male, Wistar, rat, plasma, iv, 668 nmol, non-compartmental analysis
[2] = male, Wistar, rat, plasma, iv, 668 nmol, two-compartment model analysis

Plasma concentration range with linear plasma/brain correlation (0.25–20 min): 19 to 355 nM and 18.78 to 354.84 nM
Time after which half of the compound had been cleared from the plasma (distribution phase): 18 s
Time window needed to describe complete elimination (estimate): no more than 1 hour
k el (male, Wistar, rat, iv, non-compartmental analysis, plasma, i.v. 668 nmol, read-out: λz (first order terminal elimination rate constant) (converted)): 0.00167 s⁻¹
AUC0-t (male, Wistar, rat, iv, plasma, i.v. 668 nmol C3G, read-out: AUC0–20 (converted)): 0.0194 µM·h
time to complete elimination (male, Wistar, rat, plasma, intravenous, 668 nmol, estimate, read-out: Time for complete elimination (5–6 half-lives)): 40 to 50 min
C0 (male, Wistar, rat, plasma, intravenous, 668 nmol, non-compartmental analysis): 429 nM
half-life (male, Wistar, rat, plasma, intravenous, 668 nmol, plasma, read-out: Mean half-life): < 8 min
C0 (male, Wistar, rat, plasma, intravenous, 668 nmol, two-compartment model analysis): 550 nM
MRT (male, Wistar, rat, plasma, intravenous, 668 nmol, two-compartment model analysis, read-out: MRT (converted)): 9.21 min
MRT (male, Wistar, rat, plasma, intravenous, 668 nmol, two-compartment model analysis, read-out: MRTP (mean residence time in the peripheral space) (converted)): 6.68 min
AUC(0-inf) [1]: 0.0225 µM·h
Cmax [1]: 355 nM
Tmax [1]: 0.25 min
C0 [1]: 429 nM
clearance (male, Wistar, rat, plasma, iv, 668 nmol, non-compartmental analysis, read-out: CL (total body clearance)): 490 mL/min
MRT (male, Wistar, rat, plasma, iv, 668 nmol, non-compartmental analysis, read-out: MRT (converted)): 8.72 min
Vd (male, Wistar, rat, plasma, iv, 668 nmol, non-compartmental analysis, read-out: Vss): 4.31 L
Vd (male, Wistar, rat, plasma, iv, 668 nmol, non-compartmental analysis, read-out: Vz): 4.92 L
half-life (male, Wistar, rat, plasma, iv, 668 nmol, non-compartmental analysis, read-out: t1/2 (terminal elimination half-life)): 6.9 min
half-life (male, Wistar, rat, plasma, iv, 668 nmol, plasma, i.v. 668 nmol C3G, read-out: Half life): 6.9 min
AUC(0-inf) [2]: 0.0222 µM·h
C0 [2]: 550 nM
MRT (male, Wistar, rat, plasma, iv, 668 nmol, two-compartment model analysis, read-out: MRT (converted)): 9.22 min
Vd (male, Wistar, rat, plasma, iv, 668 nmol, two-compartment model analysis, read-out: Vss): 4.58 L
half-life (male, Wistar, rat, plasma, iv, 668 nmol, two-compartment model analysis, read-out: t1/2e (elimination half-life)): 7.41 min
half-life (male, Wistar, rat, plasma, iv, 668 nmol, two-compartment model analysis, read-out: t1/2d (distribution half-life)): 0.3 min
concentration at 0.25 min (male, Wistar, rat, plasma, iv, 0.25 min after i.v. 668 nmol C3G, mean ± SEM n=4): 355 ± 54.2 nM
concentration at 2 min (male, Wistar, rat, plasma, iv, 2 min after i.v. 668 nmol C3G, mean ± SEM n=4): 93.8 ± 9.01 nM
concentration at 5 min (male, Wistar, rat, plasma, iv, 5 min after i.v. 668 nmol C3G, mean ± SEM n=4): 72.2 ± 5.47 nM
concentration at 15 min (male, Wistar, rat, plasma, iv, 15 min after i.v. 668 nmol C3G, mean ± SEM n=4): 17.5 ± 2.04 nM
concentration at 20 min (male, Wistar, rat, plasma, iv, 20 min after i.v. 668 nmol C3G, mean ± SEM n=4): 18.8 ± 4.06 nM
AUMC (non-compartmental analysis): 11789.96 nM*min^2
Residual amount eliminated per min (per min): ca. 10%
Time for distribution to go to 50% completion (rat, in vivo): ca. 8 s
Fraction distributed beyond plasma at distribution equilibrium (steady state): 99.76%
Fraction present in plasma at distribution equilibrium (steady state): 0.24%
Share of MRT spent in the peripheral space (two-compartment model): 73.51%
AUMC (two-compartment model analysis): 12394.67 nM*min^2
CL (total body clearance) (two-compartment model analysis): 0.49 L/min
FAUC (AUC peripheral bioavailability, MRTP/MRTC) (two-compartment model analysis): 2.77
IC (number of circulations, MRTP/MTTP) (two-compartment model analysis): 3.55
MTT (mean transit time; MTTC, mean duration of one visit in central compartment) (two-compartment model analysis): 0.54 min
MTTp (mean transit time in the peripheral space) (two-compartment model analysis): 1.91 min
V1 (volume of central compartment) (two-compartment model analysis): 1.21 L
V2 (volume of peripheral compartment) (two-compartment model analysis): 3.36 L
a (T0 intercept of distribution kinetics) (two-compartment model analysis): 442.79 nM
b (T0 intercept of elimination phase) (two-compartment model analysis): 107.68 nM
k10 (two-compartment model analysis): 0.41 min^–1
k12 (two-compartment model analysis): 1.45 min^–1
k21 (two-compartment model analysis): 0.52 min^–1
α (slope factor) (two-compartment model analysis): 2.29 min^–1
β (slope factor) (two-compartment model analysis): 0.09 min^–1
Compound: OC[C@H]1O[C@@H](Oc2cc3c(O)cc(O)cc3[o+]c2-c2ccc(O)c(O)c2)[C@H](O)[C@@H](O)[C@@H]1O [C3G, Cyanidin-3-O-β-glucoside]
